Values quoted from earlier work, collected in patent EP4506356A1, “METHANOL-INDUCIBLE PROMOTER AND USE THEREOF IN PREPARATION OF L-ALANYL-L-GLUTAMINE” (Wuhan Grand Hoyo Co., Ltd., priority 2022, dated 2023).
≈ marks a conversion by molar mass, not a printed value. Residues, ends and D or L forms follow the SMILES beside them.

- water solubility: 586 g/L (≈ 2700 mM)
Compound: C[C@H](N)C(=O)N[C@@H](CCC(N)=O)C(=O)O [Alanyl-glutamine dipeptide, L-alanyl-L-glutamine] (H-Ala-Gln-OH)
